{
  "source": "patent US20080090827A1",
  "about": "(Artesian Therapeutics, Inc., priority 2004, published 2008)",
  "key": {"[1]": {"biological_target": "Human platelet cyclic AMP phosphodiesterase (PDE3) (Homo sapiens, UniProt Q14432)", "sequence (Q14432 whole entry)": "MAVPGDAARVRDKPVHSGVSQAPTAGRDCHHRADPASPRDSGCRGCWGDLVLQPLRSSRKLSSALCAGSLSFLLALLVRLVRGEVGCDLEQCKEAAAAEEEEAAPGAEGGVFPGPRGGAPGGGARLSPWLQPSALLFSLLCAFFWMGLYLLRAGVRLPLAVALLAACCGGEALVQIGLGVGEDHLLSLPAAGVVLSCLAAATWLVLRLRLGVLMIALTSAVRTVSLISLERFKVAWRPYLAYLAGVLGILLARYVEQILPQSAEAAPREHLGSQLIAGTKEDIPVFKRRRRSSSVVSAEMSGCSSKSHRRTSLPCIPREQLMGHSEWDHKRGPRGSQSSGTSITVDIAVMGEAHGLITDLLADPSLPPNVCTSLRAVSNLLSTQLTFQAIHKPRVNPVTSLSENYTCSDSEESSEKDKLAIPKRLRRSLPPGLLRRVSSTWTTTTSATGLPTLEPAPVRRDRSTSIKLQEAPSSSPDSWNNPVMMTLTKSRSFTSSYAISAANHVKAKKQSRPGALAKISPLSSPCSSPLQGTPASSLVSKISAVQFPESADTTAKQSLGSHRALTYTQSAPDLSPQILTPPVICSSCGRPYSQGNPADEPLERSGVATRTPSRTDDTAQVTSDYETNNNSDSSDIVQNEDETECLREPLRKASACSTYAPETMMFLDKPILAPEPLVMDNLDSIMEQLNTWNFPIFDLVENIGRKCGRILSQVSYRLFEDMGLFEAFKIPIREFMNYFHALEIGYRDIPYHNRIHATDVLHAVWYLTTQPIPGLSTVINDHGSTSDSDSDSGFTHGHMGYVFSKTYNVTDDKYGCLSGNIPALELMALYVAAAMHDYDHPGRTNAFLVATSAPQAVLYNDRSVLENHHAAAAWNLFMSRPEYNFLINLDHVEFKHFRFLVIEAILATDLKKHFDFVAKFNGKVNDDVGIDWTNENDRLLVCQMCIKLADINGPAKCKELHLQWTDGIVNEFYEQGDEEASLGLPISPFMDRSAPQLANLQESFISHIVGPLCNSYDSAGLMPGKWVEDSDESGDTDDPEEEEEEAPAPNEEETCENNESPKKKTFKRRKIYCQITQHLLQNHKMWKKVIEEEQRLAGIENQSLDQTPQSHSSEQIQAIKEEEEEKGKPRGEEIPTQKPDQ", "experiment": "In vitro assay for measuring cAMP PDE-3 inhibitory activity", "assay_type": "biochemical", "conditions": "10 min at 30° C., n=3", "experimental": "Three assays each were performed for each of five test compound concentrations, the mean of the determinations (n=3) at each concentration was plotted, and IC50 values were determined graphically."}, "[2]": {"biological_target": "T1, human recombinant beta-1 receptors expressed in CHO-REX16 cells (Homo sapiens, UniProt P08588)", "T1 construct": "expressed in transfected cells; host or cells: CHO-REX16 cells", "T1 sequence (P08588 whole entry)": "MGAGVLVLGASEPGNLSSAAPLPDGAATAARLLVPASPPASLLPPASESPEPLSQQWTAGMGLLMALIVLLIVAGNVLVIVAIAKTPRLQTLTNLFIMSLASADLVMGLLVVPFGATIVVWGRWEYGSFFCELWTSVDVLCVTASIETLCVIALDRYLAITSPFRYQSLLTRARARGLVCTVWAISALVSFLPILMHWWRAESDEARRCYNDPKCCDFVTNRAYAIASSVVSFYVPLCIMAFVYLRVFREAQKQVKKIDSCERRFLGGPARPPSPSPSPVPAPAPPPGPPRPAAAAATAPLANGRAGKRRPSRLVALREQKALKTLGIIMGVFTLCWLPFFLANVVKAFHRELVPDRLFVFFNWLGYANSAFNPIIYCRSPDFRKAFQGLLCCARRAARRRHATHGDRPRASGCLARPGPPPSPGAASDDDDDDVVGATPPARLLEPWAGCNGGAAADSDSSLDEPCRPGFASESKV", "experiment": "Radioligand binding for β1-receptor affinity ([125I](−)Iodocyanopindolol)", "conditions": "at a concentration of 100 nM; read-out: inhibition of β1-adrenergic binding", "experimental": "β1-Adrenergic receptor binding was measured in human recombinant beta-1 receptors expressed in CHO-REX16 cells, using [^125I] (−) Iodocyanopindolol (2000 Ci/mmol) as the radioligand, as described in Kalaria et al., J. Neurochem. 53: 1772-81 (1998), and Minneman et al., Mol. Pharmacol. 16: 34-46 (1979). Compounds 17d, 21, 31b, 46a, and 46b each inhibited greater than 25% β1-adrenergic binding at a concentration of 100 nM."}, "[3]": {"biological_target": "T2, human recombinant beta-2 receptors expressed in CHO-WT21 cells (Homo sapiens, UniProt P07550)", "T2 construct": "expressed in transfected cells; host or cells: CHO-WT21 cells", "T2 sequence (P07550 whole entry)": "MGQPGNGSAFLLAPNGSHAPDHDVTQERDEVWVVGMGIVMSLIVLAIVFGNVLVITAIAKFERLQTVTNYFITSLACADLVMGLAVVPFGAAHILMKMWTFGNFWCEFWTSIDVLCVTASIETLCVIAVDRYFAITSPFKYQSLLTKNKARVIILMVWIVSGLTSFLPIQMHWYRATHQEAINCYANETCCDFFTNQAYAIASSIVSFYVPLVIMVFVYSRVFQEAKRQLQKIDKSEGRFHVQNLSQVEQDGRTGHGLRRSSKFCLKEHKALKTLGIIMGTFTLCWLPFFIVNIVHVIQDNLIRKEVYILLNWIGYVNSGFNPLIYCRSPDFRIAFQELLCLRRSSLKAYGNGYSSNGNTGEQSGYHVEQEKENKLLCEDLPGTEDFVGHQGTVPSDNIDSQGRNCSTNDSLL", "experiment": "Radioligand binding for β2-receptor affinity ([125I](−)Iodocyanopindolol)", "conditions": "at a concentration of 100 nM, read-out: inhibition of β1-adrenergic binding (as printed, β2-receptor assay)", "experimental": "β2-Adrenergic receptor binding was measured in human recombinant beta-2 receptors expressed in CHO-WT21 cells, using [^125I] (−) Iodocyanopindolol (2000 Ci/mmol) as the radioligand, as described in Kalaria et al. (1998) and Minneman et al. (1979), supra. Compounds 17d, 21, 31b, 46a, and 46b each inhibited greater than 25% β1-adrenergic binding at a concentration of 100 nM."}},
  "data": [
    {"smiles": "CC(C)NC[C@H](O)COc1ccc(CC(=O)NCCNC(=O)COc2ccc(C3=NNC(=O)CC3)cc2Cl)cc1", "note": "[Compound 12b, N-(2-{2-[2-Chloro-4-(6-oxo-1,4,5,6-tetrahydropyridazin-3-yl)-phenoxy]-acetylamino}-ethyl)-2-(4-((S)-2-hydroxy-3-isopropylamino-propoxy)-phenyl]-acetamide]", "values": [
      {"measurement": "IC50", "setting": "[1]", "value": "< 100", "unit": "nM"}
    ]},
    {"smiles": "CC(C)NCC(O)COc1ccc(CCNC(=O)COc2ccc(C3=NNC(=O)CC3)cc2Cl)cc1", "note": "(stereo not shown) [Compound 17c, 2-[2-Chloro-4-(6-oxo-1,4,5,6-tetrahydro-pyridazin-3-yl)-phenoxy]-N-{2-[4-(2-hydroxy-3-isopropylamino-propoxy)-phenyl]-ethyl}-acetamide]", "values": [
      {"measurement": "IC50", "setting": "[1]", "value": "< 100", "unit": "nM"}
    ]},
    {"smiles": "CC(C)(C)NC[C@H](O)COc1ccc(C(=O)NCCNC(=O)COc2ccc(C3=NNC(=O)CC3)cc2Cl)cc1", "note": "[Compound 13, 4-((S)-3-tert-Butylamino-2-hydroxy-propoxy)-N-(2-{2-[2-chloro-4-(6-oxo-1,4,5,6-tetrahydropyridazin-3-yl)-phenoxy]-acetylamino}-ethyl)-benzamide]", "values": [
      {"measurement": "IC50", "setting": "[1]", "value": "< 1000", "unit": "nM"}
    ]},
    {"smiles": "CC(C)(C)NCC(O)COc1ccc(CCOc2ccc(C3=NNC(=O)CC3)cc2Cl)cc1", "note": "(stereo not shown) [Compound 37b, 6-(4-{2-[4-(3-tert-Butylamino-2-hydroxy-propoxy)-phenyl]-ethoxy}-3-chloro-phenyl)-4,5-dihydro-2H-pyridazin-3-one]", "values": [
      {"measurement": "IC50", "setting": "[1]", "value": "< 100", "unit": "nM"}
    ]},
    {"smiles": "CC(C)NC[C@H](O)COc1ccc(CCOCCCOc2ccc(C3=NNC(=O)CC3)cc2Cl)cc1", "note": "[Compound 46a, 6-[3-Chloro-4-(3-{2-[4-((S)-2-hydroxy-3-isopropylamino-propoxy)-phenyl]-ethoxy}-propoxy)-phenyl]-4,5-dihydro-2H-pyridazin-3-one]", "values": [
      {"measurement": "inhibition at 0.1 µM", "setting": "[2]", "value": "> 25", "unit": "%"},
      {"measurement": "IC50", "setting": "[1]", "value": "< 100", "unit": "nM"},
      {"measurement": "inhibition at 0.1 µM", "setting": "[3]", "value": "> 25", "unit": "%"}
    ]},
    {"smiles": "CC(C)(C)NC[C@H](O)COc1ccc(CCOCCCOc2ccc(C3=NNC(=O)CC3)cc2Cl)cc1", "note": "[Compound 46b, 6-[4-(3-{2-[4-((S)-3-tert-Butylamino-2-hydroxy-propoxy)-phenyl]-ethoxy}-propoxy)-3-chloro-phenyl]-4,5-dihydro-2H-pyridazin-3-one]", "values": [
      {"measurement": "inhibition at 0.1 µM", "setting": "[2]", "value": "> 25", "unit": "%"},
      {"measurement": "IC50", "setting": "[1]", "value": "< 100", "unit": "nM"},
      {"measurement": "inhibition at 0.1 µM", "setting": "[3]", "value": "> 25", "unit": "%"}
    ]},
    {"smiles": "CC(C)(C)NCC(O)COc1ccc(CCNC(=O)COc2ccc(C3=NNC(=O)CC3)cc2Cl)cc1", "note": "(stereo not shown) [Compound 17d, N-{2-[4-(3-tert-Butylamino-2-hydroxy-propoxy)-phenyl]-ethyl}-2-[2-chloro-4-(6-oxo-1,4,5,6-tetrahydro-pyridazin-3-yl)-phenoxy]-acetamide]", "values": [
      {"measurement": "inhibition at 0.1 µM", "setting": "[2]", "value": "> 25", "unit": "%"},
      {"measurement": "IC50", "setting": "[1]", "value": "< 100", "unit": "nM"},
      {"measurement": "inhibition at 0.1 µM", "setting": "[3]", "value": "> 25", "unit": "%"}
    ]},
    {"smiles": "CC(C)NCC(O)COc1ccc(CNC(=O)COc2ccc(C3=NNC(=O)CC3)cc2Cl)cc1", "note": "(stereo not shown) [Compound 17a, 2-[2-Chloro-4-(6-oxo-1,4,5,6-tetrahydro-pyridazin-3-yl)-phenoxy]-N-[4-(2-hydroxy-3-isopropylamino-propoxy)-benzyl]-acetamide]", "values": [
      {"measurement": "IC50", "setting": "[1]", "value": "< 1000", "unit": "nM"}
    ]},
    {"smiles": "CC(C)(C)NCC(O)COc1ccc(COCCCOc2ccc(C3=NNC(=O)CC3)cc2Cl)cc1", "note": "(stereo not shown) [Compound 31b, 6-(4-{3-[4-(3-tert-Butylamino-2-hydroxy-propoxy)-benzyloxy]-propoxy}-3-chloro-phenyl)-4,5-dihydro-2H-pyridazin-3-one]", "values": [
      {"measurement": "inhibition at 0.1 µM", "setting": "[2]", "value": "> 25", "unit": "%"},
      {"measurement": "IC50", "setting": "[1]", "value": "< 100", "unit": "nM"},
      {"measurement": "inhibition at 0.1 µM", "setting": "[3]", "value": "> 25", "unit": "%"}
    ]},
    {"smiles": "CC(C)NCC(O)COc1ccc(COCCCOc2ccc(C3=NNC(=O)CC3)cc2Cl)cc1", "note": "(stereo not shown) [Compound 31a, 6-(3-Chloro-4-{3-[4-(2-hydroxy-3-isopropylamino-propoxy)-benzyloxy]-propoxy}-phenyl)-4,5-dihydro-2H-pyridazin-3-one]", "values": [
      {"measurement": "IC50", "setting": "[1]", "value": "< 1000", "unit": "nM"}
    ]},
    {"smiles": "CC(C)NC[C@H](O)COc1ccc(C(=O)NCCNC(=O)COc2ccc(C3=NNC(=O)CC3)cc2Cl)cc1", "note": "[Compound 12a]", "values": [
      {"measurement": "IC50", "setting": "[1]", "value": "< 1000", "unit": "nM"}
    ]},
    {"smiles": "CC(C)(C)NCC(O)COc1ccc(CNC(=O)COc2ccc(C3=NNC(=O)CC3)cc2Cl)cc1", "note": "(stereo not shown) [Compound 17b, N-[4-(3-tert-Butylamino-2-hydroxy-propoxy)-benzyl]-2-[2-chloro-4-(6-oxo-1,4,5,6-tetrahydro-pyridazin-3-yl)-phenoxy]-acetamide]", "values": [
      {"measurement": "IC50", "setting": "[1]", "value": "< 1000", "unit": "nM"}
    ]},
    {"smiles": "CC(C)NCC(O)COc1ccc(CCOc2ccc(C3=NNC(=O)CC3)cc2Cl)cc1", "note": "(stereo not shown) [Compound 37a, 6-(3-Chloro-4-{2-[4-(2-hydroxy-3-isopropylamino-propoxy)-phenyl]-ethoxy}-phenyl)-4,5-dihydro-2H-pyridazin-3-one]", "values": [
      {"measurement": "IC50", "setting": "[1]", "value": "< 100", "unit": "nM"}
    ]},
    {"smiles": "CC(C)(C)NC[C@H](O)COc1ccc(CCNC(=O)COc2ccc(C3=NNC(=O)CC3)cc2)cc1", "note": "[Compound 21, N-{2-[4-((S)-3-tert-butylamino-2-hydroxy-propoxy)-phenyl]-ethyl}-2-[4-(6-oxo-1,4,5,6-tetrahydro-pyridazin-3-yl)-phenoxy]-acetamide]", "values": [
      {"measurement": "inhibition at 0.1 µM", "setting": "[2]", "value": "> 25", "unit": "%"},
      {"measurement": "IC50", "setting": "[1]", "value": "< 1000", "unit": "nM"},
      {"measurement": "inhibition at 0.1 µM", "setting": "[3]", "value": "> 25", "unit": "%"}
    ]},
    {"smiles": "CC(C)NC[C@H](O)COc1ccc(CCC(=O)NCCNC(=O)COc2ccc(C3=NNC(=O)CC3)cc2Cl)cc1", "note": "[Compound 7]", "values": [
      {"measurement": "IC50", "setting": "[1]", "value": "< 100", "unit": "nM"}
    ]}
  ]
}
